Experimental data from US12421229B2, “Hydropyrido[1,2-α]pyrazine compounds for the treatment of autoimmune disease” (Hoffmann-La Roche Inc., priority 2019, dated 2025).
pIC50: −log10 of the molar value.

Target: T1, hERG K+ channel (Homo sapiens, UniProt Q12809)
T1 construct: expressed in transfected cells; host or cells: CHO (Chinese hamster ovary), CHOhERG
Test: hERG channel inhibition assay (patch-clamp, CHOhERG cells)
Type: cell-based
Conditions: for pIC50 / IC20: CHOhERG cells, whole-cell patch-clamp; for IC20: human, CHO cells stably expressing hERG (CHOhERG); for hERG IC20/TLR7 IC50 / hERG IC20/TLR8 IC50 / hERG IC20/TLR9 IC50: safety ratio
Method: The hERG K^+ channels were cloned in humans and stably expressed in a CHO (Chinese hamster ovary) cell line. CHOhERG cells were used for patch-clamp (voltage-clamp, whole-cell) experiments. Cells were stimulated by a voltage pattern to activate hERG channels and conduct IKhERG currents (rapid delayed outward rectifier potassium current of the hERG channel). After the cells were stabilized for a few minutes, the amplitude and kinetics of IKhERG were recorded at a stimulation frequency of 0.1 Hz, (6 bpm). Thereafter, the test compound was added to the preparation at increasing concentrations. For each concentration, an attempt was made to reach a steady-state effect, usually, this was achieved within 3-10 min at which time the next highest concentration was applied. The amplitude and kinetics of IKhERG are recorded in each concentration of the drug which were compared to the control values (taken as 100%). (references: Redfern W S, Carlsson L, Davis A S, Lynch W G, MacKenzie I, Palethorpe S, Siegl P K, Strang I, Sullivan A T, Wallis R, Camm A J, Hammond T G. 2003; Relationships between preclinical cardiac electrophysiology, clinical QT interval prolongation and torsade de pointes for a broad range of drugs: evidence for a provisional safety margin in drug development. Cardiovasc. Res. 58:32-45, Sanguinetti MC, Tristani-Firouzi M. 2006; hERG potassium channels and cardiac arrhythmia. Nature 440:463-469, Webster R, Leishman D, Walker D. 2002; Towards a drug concentration effect relationship for QT prolongation and torsades de pointes. Curr. Opin. Drug Discov. Devel. 5:116-26).

T1 sequence (Q12809 whole entry): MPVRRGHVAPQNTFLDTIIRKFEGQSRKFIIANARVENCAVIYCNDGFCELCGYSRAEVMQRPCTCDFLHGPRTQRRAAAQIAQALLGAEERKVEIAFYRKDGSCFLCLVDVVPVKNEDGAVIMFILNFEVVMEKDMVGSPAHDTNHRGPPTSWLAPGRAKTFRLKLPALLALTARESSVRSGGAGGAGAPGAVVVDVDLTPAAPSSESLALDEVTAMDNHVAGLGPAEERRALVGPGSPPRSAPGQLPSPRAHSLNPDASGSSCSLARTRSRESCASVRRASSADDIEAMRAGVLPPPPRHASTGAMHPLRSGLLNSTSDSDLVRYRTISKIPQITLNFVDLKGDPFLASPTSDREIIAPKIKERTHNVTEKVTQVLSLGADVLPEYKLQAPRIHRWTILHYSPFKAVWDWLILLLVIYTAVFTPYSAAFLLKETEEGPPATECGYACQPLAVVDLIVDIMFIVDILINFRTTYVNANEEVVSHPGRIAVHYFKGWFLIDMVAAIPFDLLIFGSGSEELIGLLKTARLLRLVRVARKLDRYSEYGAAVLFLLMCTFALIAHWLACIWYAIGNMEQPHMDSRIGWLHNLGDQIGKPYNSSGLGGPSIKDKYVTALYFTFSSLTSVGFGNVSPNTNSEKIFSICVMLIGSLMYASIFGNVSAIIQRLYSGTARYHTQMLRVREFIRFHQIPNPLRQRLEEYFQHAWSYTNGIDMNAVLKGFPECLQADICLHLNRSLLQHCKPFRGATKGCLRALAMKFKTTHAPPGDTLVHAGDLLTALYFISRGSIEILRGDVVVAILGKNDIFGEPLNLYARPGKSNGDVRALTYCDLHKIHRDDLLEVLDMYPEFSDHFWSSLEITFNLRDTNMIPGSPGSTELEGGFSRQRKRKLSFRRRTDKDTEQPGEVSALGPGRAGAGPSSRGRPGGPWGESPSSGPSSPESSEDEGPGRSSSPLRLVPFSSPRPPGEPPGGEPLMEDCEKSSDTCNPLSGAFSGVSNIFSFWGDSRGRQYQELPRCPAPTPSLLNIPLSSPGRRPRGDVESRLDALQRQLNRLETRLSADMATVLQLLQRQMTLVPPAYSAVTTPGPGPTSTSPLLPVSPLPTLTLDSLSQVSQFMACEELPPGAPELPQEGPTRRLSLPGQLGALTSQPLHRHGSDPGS

Structure (SMILES)	pIC50	IC20 [µM]	hERG IC20/TLR7 IC50	hERG IC20/TLR8 IC50	hERG IC20/TLR9 IC50
CO[C@H]1CN(c2ccc([C@@H]3CCN4[C@@H](C3)CN(c3ccc(C#N)c5ncccc35)C[C@H]4C)cn2)C[C@@H]1N [Example 6, 5-[(4R,8R,9aS)-8-[6-[(3S,4S)-3-amino-4-methoxy-pyrrolidin-1-yl]-3-pyridyl]-4-methyl-1,3,4,6,7,8,9,9a-octahydropyrido[1,2-a]pyrazin-2-yl]quinoline-8-carbonitrile]	< 4.70	9.2	224.4	195.7	105.7
[2H]c1ccc2c(N3C[C@@H]4C[C@H](Nc5ccc(C[C@H]6CNCCO6)cc5)CCN4[C@H](C)C3)ccc(C#N)c2n1 [Example 34, 5-[(4R,8R,9aS)-4-methyl-8-[4-[[(2S)-morpholin-2-yl]methyl]anilino]-1,3,4,6,7,8,9,9a-octahydropyrido[1,2-a]pyrazin-2-yl]-2-deuterio-quinoline-8-carbonitrile]	< 4.70	> 10	>212.7	>250	>175.4
C[C@@H]1CN(c2ccc(C#N)c3ncccc23)C[C@@H]2C[C@H](Nc3ccc([C@H]4CNCCO4)cc3)CCN21 [Example 20, 5-[(4R,8R,9aS)-4-methyl-8-[4-[(2S)-morpholin-2-yl]anilino]-1,3,4,6,7,8,9,9a-octahydropyrido[1,2-a]pyrazin-2-yl]quinoline-8-carbonitrile]	< 4.70	> 10	>769.2	>200	>200
C[C@@H]1CN(c2ccc(C#N)c3ncccc23)C[C@@H]2C[C@H](Nc3ccc(C[C@@H]4CNCCO4)cc3)CCN21 [Example 21, 5-[(4R,8R,9aS)-4-methyl-8-[4-[[(2R)-morpholin-2-yl]methyl]anilino]-1,3,4,6,7,8,9,9a-octahydropyrido[1,2-a]pyrazin-2-yl]quinoline-8-carbonitrile]	< 4.70	> 10	>500	>185.2	>116.3
C[C@@H]1CN(c2ccc(C#N)c3ncccc23)C[C@@H]2C[C@H](N3CC(c4ccc(N5CCNCC5)cc4)C3)CCN21 [Example 9, 5-[(4R,8R,9aS)-4-methyl-8-[3-(4-piperazin-1-ylphenyl)azetidin-1-yl]-1,3,4,6,7,8,9,9a-octahydropyrido[1,2-a]pyrazin-2-yl]quinoline-8-carbonitrile]	< 4.70	> 10	>370.4	>277.8	>312.5
C[C@@H]1CN(c2ccc(C#N)c3ncccc23)C[C@@H]2C[C@@H](Oc3ccc(N4CCNCC4)cn3)CCN21 [Example 11, 5-[(4R,8S,9aS)-4-methyl-8-[(5-piperazin-1-yl-2-pyridyl)oxy]-1,3,4,6,7,8,9,9a-octahydropyrido[1,2-a]pyrazin-2-yl]quinoline-8-carbonitrile]	< 4.70	> 10	>217.4	>666.6	>111.1
